Read-outs that look alike come from different tables or passages of the source. Each block holds one molecule with its values, some of them ahead of it.
Key:
HL-60 cells = test: MTT-dye reduction cytotoxicity assay, HL-60; format: cell-based, human; settings: for IC50: Homo sapiens, HL-60
Method: (§1) The research included four leukemic and three cancer human cell lines: HL-60 (acute myeloid leukemia), SKW-3 (KE-37 derivative) (T-cell leukemia), BV-173 and K-562 (chronic myeloid leukemia), MDA-MB-231 (ER-negative breast carcinoma), MCF-7 (ER-positive breast adenocarcinoma), and SaOS-2 (osteogenic sarcoma). The cells were provided from the German Collection of Microorganisms and Cell Cultures (DSMZ, Braunschweig, Germany). The solid tumor cell lines (MDA-MB-231, MCF-7, and SaOS-2) were incubated in 90% RPMI-1640 supplemented with 10% fetal bovine serum (FBS), non-essential amino acids, 1 mM sodium pyruvate, and […] human insulin as monolayer adherent cultures. The remaining cell lines were cultivated as a suspension culture in cell culture flasks at 37 °C in an incubator “BB 16-Function Line” Heraeus (Kendro, Hanau, Germany) with humidified atmosphere and 5% CO2 under standard conditions–RPMI-1640 liquid media supplemented with 10% FBS and 2 mM L-glutamine. The cells were kept in log phase by supplementing with fresh media after removing cell suspension aliquots two or three times each week.
(§2) At least eight wells were used for each concentration.

KE-37 cells = test: MTT-dye reduction cytotoxicity assay, KE-37; format: cell-based, human; settings: for IC50: Homo sapiens, KE-37
Method: as §1, §2

BV-173 cells = test: MTT-dye reduction cytotoxicity assay, BV-173; format: cell-based, human; settings: for IC50: Homo sapiens, BV-173
Method: as §1, §2

MDA-MB-231 cells = test: MTT-dye reduction cytotoxicity assay, MDA-MB-231; format: cell-based, human; settings: for IC50: Homo sapiens, MDA-MB-231
Method: as §1, §2

MCF-7 cells = test: MTT-dye reduction cytotoxicity assay, MCF-7; format: cell-based, human; settings: for IC50: Homo sapiens, MCF7
Method: as §1, §2

K-562 cells = test: MTT-dye reduction cytotoxicity assay, K-562; format: cell-based, human; settings: for IC50: Homo sapiens, K562; for Ligand Efficiency (LE) K-562: LE = pIC50/number of heavy atoms
Method: as §1, §2

SaOS-2 cells = test: MTT-dye reduction cytotoxicity assay, SaOS-2; format: cell-based, human; settings: for IC50: Homo sapiens, SAOS-2
Method: as §1, §2

[1] = system: HL-60, KE-37, K-562, BV-173, SaOS-2, MDA-MB-231, MCF-7 cell lines; test: Average over the cancer cell lines tested (LE, SI); format: cell-based, human; settings: average over seven cancer cell lines
Method: (§3) To assess the selectivity of the newly synthesized derivatives, they were tested on the normal human embryonic kidney HEK-293 cell line. The derived IC50 values were used to calculate the selectivity index according to the formula SI = IC50 (normal cells)/IC50 (cancer cells).
The training set of salicylaldehyde hydrazones contained 11 compounds synthesized and tested before in our Lab. Their anticancer activities were measured and expressed as IC50 values on the following cell lines: HL-60, KE-37, K-562, BV-173, SaOS-2, MDA-MB-231, and MCF-7. For the purposes of SAR analysis, the IC50 values were converted in p-units (−logIC50) and ligand efficiencies (LEs) were calculated according to the formula: LE = pIC50/n, where n is the count of non-hydrogen atoms in the molecule.

[2] = MTT-dye reduction cytotoxicity assay, normal HEK-293; settings: human, HEK-293 cells (normal human embryonic kidney)
Method: as §3
The cytotoxic activity of the examined substances was determined using Mossman’s MTT [3-(4,5-dimethylthiazol-2-yl)-2,5-diphenyltetrazolium bromide] dye reduction assay. The approach is based on the reduction of the yellow tetrazolium salt MTT to a violet formazan in live cells via mitochondrial succinate dehydrogenase. In brief, exponentially developing cells were seeded at a density of 1 × 10^5 cells per ml in 96-well flat-bottomed microplates (100 μL/well), and after 24 h of incubation at 37 °C, they were treated to varied doses of the tested substances for 72 h. At least eight wells were used for each concentration. Following the incubation with the test compounds, aliquots of 10 μL MTT solution (10 mg/mL in PBS) were applied to each well. The microplates were then incubated at 37 °C for 4 h before the MTT-formazan crystals were dissolved with 100 μL/well 5% HCOOH in 2-propanol. The MTT-formazan absorbance was measured at 580 nm using a microprocessor-controlled microplate reader (Labexim LMR-1).
The cell survival data were standardized as a percentage of the untreated control (set as 100% viability). The biological data were processed statistically using Student’s t-test, where values were considered statistically significant at p ≤ 0.05. The corresponding IC50 values were obtained to allow quantitative merit for the assessment of the relative potencies of the compounds under investigation. Each data point represents the arithmetic mean ± standard deviation (sd) of at least eight independent experiments.

[3] = training set, some activities published before [26-32], the rest measured for this study, read-out: IC50 ± standard deviation, HL-60
[4] = training set, some activities published before [26-32], the rest measured for this study, read-out: IC50 ± standard deviation, KE-37
[5] = training set, some activities published before [26-32], the rest measured for this study, read-out: IC50 ± standard deviation, BV-173
[6] = training set, some activities published before [26-32], the rest measured for this study, read-out: IC50 ± standard deviation, MDA-MB-231
[7] = training set, some activities published before [26-32], the rest measured for this study, read-out: IC50 ± standard deviation, MCF-7
[8] = training set, some activities published before [26-32], the rest measured for this study, read-out: IC50 ± standard deviation, K-562
[9] = training set, some activities published before [26-32], the rest measured for this study, read-out: IC50 ± standard deviation, SaOS-2
[10] = SI = IC50 (HEK-293)/IC50 (cancer cells)
[11] = compound 13 versus benzoyl analog

Compound: COc1ccc(O)c(/C=N/NC(=O)c2ccccc2)c1 [Compound 9]
- IC50 (HL-60 cells; [3]): 5.29 ± 1.2 µM
- IC50 (KE-37 cells; [4]): 3.38 ± 1 µM
- IC50 (BV-173 cells; [5]): 3.15 ± 0.8 µM
- IC50 (MDA-MB-231 cells; [6]): 4.46 ± 1.1 µM
- IC50 (MCF-7 cells; [7]): 0.91 ± 0.3 µM

Compound: O=C(N/N=C/c1cc([N+](=O)[O-])ccc1O)c1ccncc1 [Compound 8]
- IC50 (HL-60 cells; [3]): 15 ± 2.4 µM
- IC50 (K-562 cells; [8]): 19 ± 2.7 µM
- Ligand Efficiency (LE) K-562 (K-562 cells): 0.225
- IC50 (KE-37 cells; [4]): 17 ± 3.1 µM
- IC50 (BV-173 cells; [5]): 10.2 ± 1.1 µM
- IC50 (MDA-MB-231 cells; [6]): 72.3 ± 5.6 µM
- IC50 (MCF-7 cells; [7]): 0.18 ± 0.03 µM
- IC50 (SaOS-2 cells; [9]): 35.7 ± 4.3 µM

- melting point: 216 to 217 °C
Compound: COc1ccc(C=NNC(=O)c2ccc(O)cc2)c(O)c1 [Compound 13, 4-methoxysalicylaldehyde-4-hydroxybenzoylhydrazone]
- IC50 (HL-60 cells; 72 h treatment, read-out: IC50 exp, HL-60): 8.9 ± 2.47 µM
- SI (selectivity index) HL-60 (HL-60 cells; [10]): 6
- IC50 (K-562 cells; 72 h treatment, read-out: IC50 exp, K-562): 8.75 ± 1.29 µM
- SI (selectivity index) K-562 (K-562 cells; [10]): 6
- reduction of cytotoxicity by hydroxy group in the benzoyl ring, K-562 (K-562 cells; [11]): 292 fold
- average SI [1]: 14
- IC50 (KE-37 cells; 72 h treatment, read-out: IC50 exp, KE-37): 10.8 ± 2.81 µM
- SI (selectivity index) KE-37 (KE-37 cells; [10]): 5
- IC50 (BV-173 cells; 72 h treatment, read-out: IC50 exp, BV-173): 3.88 ± 1.16 µM
- SI (selectivity index) BV-173 (BV-173 cells; [10]): 15
- reduction of cytotoxicity by hydroxy group in the benzoyl ring, BV-173 (BV-173 cells; [11]): 3 fold
- IC50 (MDA-MB-231 cells; 72 h treatment, read-out: IC50 exp, MDA-MB-231): 2.9 ± 0.32 µM
- SI (selectivity index) MDA-MB-231 (MDA-MB-231 cells; [10]): 20
- reduction of cytotoxicity by hydroxy group in the benzoyl ring, MDA-MB-231 (MDA-MB-231 cells; [11]): 1.25 fold
- IC50 (MCF-7 cells; 72 h treatment, read-out: IC50 exp, MCF-7): 1.38 ± 0.08 µM
- SI (selectivity index) MCF-7 (MCF-7 cells; [10]): 41
- reduction of cytotoxicity by hydroxy group in the benzoyl ring, MCF-7 (MCF-7 cells; [11]): 6 fold
- IC50 at 72 h [2]: 56.7 ± 4.35 µM
- IC50 (SaOS-2 cells; 72 h treatment, read-out: IC50 exp, SaOS-2): 26 ± 3.65 µM
- SI (selectivity index) SaOS-2 (SaOS-2 cells; [10]): 2
- reduction of cytotoxicity by hydroxy group in the benzoyl ring, sarcomic cells (SaOS-2 cells; [11]): 15.5 fold

Compound: COc1cccc(/C=N/NC(=O)c2ccc(O)cc2)c1O [Compound 2]
- IC50 (HL-60 cells; [3]): 9.2 ± 2.4 µM
- IC50 (K-562 cells; [8]): 14.3 ± 2.9 µM
- Ligand Efficiency (LE) K-562 (K-562 cells): 0.231
- IC50 (KE-37 cells; [4]): 7.6 ± 2.1 µM
- IC50 (BV-173 cells; [5]): 7.8 ± 2 µM
- IC50 (MDA-MB-231 cells; [6]): 24.2 ± 3.8 µM
- IC50 (MCF-7 cells; [7]): 19.7 ± 2.2 µM
- IC50 (SaOS-2 cells; [9]): 19.2 ± 3.1 µM

Compound: O=C(N/N=C/c1cc(Br)ccc1O)c1ccc(O)cc1 [Compound 4]
- IC50 (HL-60 cells; [3]): 3.14 ± 1.1 µM
- IC50 (K-562 cells; [8]): 2.83 ± 0.3 µM
- Ligand Efficiency (LE) K-562 (K-562 cells): 0.277
- IC50 (KE-37 cells; [4]): 3 ± 0.5 µM
- IC50 (MDA-MB-231 cells; [6]): 20.1 ± 3.9 µM
- IC50 (MCF-7 cells; [7]): 8.88 ± 2.7 µM
- IC50 (SaOS-2 cells; [9]): 50 ± 5.7 µM

Compound: O=C(N/N=C/c1cc(Br)ccc1O)c1ccncc1 [Compound 5]
- IC50 (HL-60 cells; [3]): 4.13 ± 1.2 µM
- IC50 (K-562 cells; [8]): 0.14 ± 0.09 µM
- Ligand Efficiency (LE) K-562 (K-562 cells): 0.360
- IC50 (KE-37 cells; [4]): 2.53 ± 1 µM
- IC50 (BV-173 cells; [5]): 0.63 ± 0.2 µM
- IC50 (MDA-MB-231 cells; [6]): 38.4 ± 2 µM
- IC50 (MCF-7 cells; [7]): 0.26 ± 0.03 µM
- IC50 (SaOS-2 cells; [9]): 146 ± 8.9 µM

- melting point: 232 to 233 °C
Compound: COc1ccc(C=NNC(=O)c2ccncc2)c(O)c1 (hydrate or solvate) [Compound 14, 4-methoxysalicylaldehyde isonicotinoylhydrazone]

Compound: COc1cccc(/C=N/NC(=O)c2ccncc2)c1O [Compound 3]
- IC50 (HL-60 cells; [3]): 2.7 ± 0.9 µM
- IC50 (K-562 cells; [8]): 8.7 ± 2 µM
- Ligand Efficiency (LE) K-562 (K-562 cells): 0.253
- IC50 (KE-37 cells; [4]): 3.3 ± 1.2 µM
- IC50 (BV-173 cells; [5]): 3.7 ± 1.1 µM
- IC50 (MDA-MB-231 cells; [6]): 16.4 ± 2 µM
- IC50 (MCF-7 cells; [7]): 11.7 ± 2.4 µM
- IC50 (SaOS-2 cells; [9]): 11.9 ± 3.2 µM

From PMC10138506, “Design, Synthesis and Cytotoxic Activity of Novel Salicylaldehyde Hydrazones against Leukemia and Breast Cancer” (International Journal of Molecular Sciences, 2023)
